13 molecules from US11339130B1 (Blade Therapeutics, Inc., priority 2016, dated 2022) can be followed below.

One experiment concerns the target T1, Human Calpain 1/NS1 (Homo sapiens, UniProt P07384).
T1 sequence (P07384 1-714): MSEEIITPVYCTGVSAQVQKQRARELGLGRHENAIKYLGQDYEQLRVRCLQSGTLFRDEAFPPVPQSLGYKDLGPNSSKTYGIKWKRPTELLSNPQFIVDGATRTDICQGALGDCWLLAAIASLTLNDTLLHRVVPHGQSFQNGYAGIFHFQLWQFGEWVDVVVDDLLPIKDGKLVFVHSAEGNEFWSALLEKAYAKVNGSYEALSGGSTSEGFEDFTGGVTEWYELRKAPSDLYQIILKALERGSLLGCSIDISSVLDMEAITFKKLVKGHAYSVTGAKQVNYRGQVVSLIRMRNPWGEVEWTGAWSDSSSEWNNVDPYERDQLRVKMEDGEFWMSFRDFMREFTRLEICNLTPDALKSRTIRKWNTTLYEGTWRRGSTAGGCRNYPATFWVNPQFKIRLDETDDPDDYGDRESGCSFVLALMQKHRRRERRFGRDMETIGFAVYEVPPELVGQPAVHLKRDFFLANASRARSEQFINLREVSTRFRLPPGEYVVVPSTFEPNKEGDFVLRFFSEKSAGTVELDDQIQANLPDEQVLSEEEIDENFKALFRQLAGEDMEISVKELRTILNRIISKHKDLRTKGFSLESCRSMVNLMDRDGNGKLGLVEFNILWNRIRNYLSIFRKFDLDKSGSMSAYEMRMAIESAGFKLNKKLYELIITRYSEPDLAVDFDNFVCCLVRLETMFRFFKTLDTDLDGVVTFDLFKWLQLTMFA
T1 sequence (P04632 1-268 partner): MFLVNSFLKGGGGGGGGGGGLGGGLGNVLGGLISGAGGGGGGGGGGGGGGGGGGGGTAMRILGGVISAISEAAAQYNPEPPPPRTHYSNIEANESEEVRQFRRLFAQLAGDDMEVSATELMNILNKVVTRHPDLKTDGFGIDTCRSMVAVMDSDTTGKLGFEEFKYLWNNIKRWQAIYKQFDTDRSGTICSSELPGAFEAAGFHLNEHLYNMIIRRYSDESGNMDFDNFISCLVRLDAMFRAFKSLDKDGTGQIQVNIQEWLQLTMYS
Kind of experiment: Calpain inhibition continuous fluorescence (FRET) assay, Human Calpain 1/NS1. The experiment is classed as biochemical. Conditions: Column A; read-out: Human Calpain 1/NS1 IC50. The gist of the method: (§1)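 Human calpains 1, 2 and 9 preincubated with inhibitor at 25 °C in 50 mM Tris pH 7.5, 100 mM NaCl, 1 mM DTT; reaction started with 5-FAM/QXL 520 FRET peptide plus CaCl2 for activation. Fluorescence (490/520 nm) followed 10 min; rates from 1-5 min slopes fitted to 4-parameter logistic for IC50.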

The next experiment concerns the target T2, Human Calpain 2/NS1 (Homo sapiens, UniProt P17655).
T2 sequence (P17655 1-700): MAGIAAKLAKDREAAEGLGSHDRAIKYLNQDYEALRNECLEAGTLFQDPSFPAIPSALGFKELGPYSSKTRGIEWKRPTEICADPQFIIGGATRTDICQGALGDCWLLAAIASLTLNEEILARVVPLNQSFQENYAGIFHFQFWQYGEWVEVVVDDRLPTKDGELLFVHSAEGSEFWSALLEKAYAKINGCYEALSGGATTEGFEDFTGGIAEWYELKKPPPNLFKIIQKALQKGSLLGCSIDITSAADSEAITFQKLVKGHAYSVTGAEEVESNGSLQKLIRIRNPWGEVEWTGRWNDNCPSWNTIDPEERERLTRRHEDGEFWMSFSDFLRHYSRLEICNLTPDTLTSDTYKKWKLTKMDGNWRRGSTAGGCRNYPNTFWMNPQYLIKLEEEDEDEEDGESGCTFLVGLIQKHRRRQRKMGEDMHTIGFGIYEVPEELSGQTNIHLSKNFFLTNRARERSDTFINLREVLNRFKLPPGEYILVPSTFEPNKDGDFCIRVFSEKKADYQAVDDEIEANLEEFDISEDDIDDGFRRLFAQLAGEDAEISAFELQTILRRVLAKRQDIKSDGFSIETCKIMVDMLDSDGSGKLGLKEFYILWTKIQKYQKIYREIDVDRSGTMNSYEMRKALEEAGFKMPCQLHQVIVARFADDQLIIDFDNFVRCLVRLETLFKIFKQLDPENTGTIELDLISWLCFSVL
T2 sequence (P04632 1-268 partner): T1 sequence (P04632 1-268 partner)
The experiment in a line: Calpain inhibition continuous fluorescence (FRET) assay, Human Calpain 2/NS1. It counts as biochemical. Conditions: Column B; read-out: Human Calpain 2/NS1 IC50. Put shortly: as §1

Another experiment addresses T3, Human Calpain 9/NS1 (Homo sapiens, UniProt O14815).
T3 sequence (O14815 1-690): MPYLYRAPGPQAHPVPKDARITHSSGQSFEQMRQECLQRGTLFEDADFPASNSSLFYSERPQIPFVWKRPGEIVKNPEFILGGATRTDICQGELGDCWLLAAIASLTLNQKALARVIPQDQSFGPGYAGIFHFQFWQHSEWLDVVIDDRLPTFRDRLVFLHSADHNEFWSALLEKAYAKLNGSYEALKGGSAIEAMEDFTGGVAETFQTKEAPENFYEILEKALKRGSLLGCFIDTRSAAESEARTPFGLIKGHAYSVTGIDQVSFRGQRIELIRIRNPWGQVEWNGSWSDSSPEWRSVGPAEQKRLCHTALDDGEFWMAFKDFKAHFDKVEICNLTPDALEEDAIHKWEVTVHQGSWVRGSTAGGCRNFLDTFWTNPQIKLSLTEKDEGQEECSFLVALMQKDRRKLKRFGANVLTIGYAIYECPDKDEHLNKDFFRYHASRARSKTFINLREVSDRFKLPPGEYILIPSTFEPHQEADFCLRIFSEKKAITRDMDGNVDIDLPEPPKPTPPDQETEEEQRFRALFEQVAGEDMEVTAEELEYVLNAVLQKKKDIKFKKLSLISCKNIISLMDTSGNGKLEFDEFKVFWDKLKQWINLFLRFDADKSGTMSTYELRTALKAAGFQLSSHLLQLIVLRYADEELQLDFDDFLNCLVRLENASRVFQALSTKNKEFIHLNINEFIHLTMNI
T3 sequence (P04632 1-268 partner): T1 sequence (P04632 1-268 partner)
Kind of experiment: Calpain inhibition continuous fluorescence (FRET) assay, Human Calpain 9/NS1. The experiment is classed as biochemical. Conditions: Column C; read-out: Human Calpain 9/NS1 IC50. Put shortly: as §1

The test system of experiment [1] is Calpain activity in SH-SY5Y cells (SBDP-150). The experiment in a line: SH-SY5Y Spectrin western blot assay (SBDP-150 breakdown product, A23187-induced). It counts as cell-based. Conditions: Homo sapiens; Column D; SH-SY5Y cells, A23187-induced SBDP-150; read-out: SH-SY5Y Spectrin IC50.
Experiment [2] concerns Calpain activity in SH-SY5Y cells. The experiment in a line: SH-SY5Y + AMC fluorescence assay (Suc-LLVY-AMC substrate). The experiment is classed as cell-based. Conditions: Column E, read-out: SH-SY5Y + AMC IC50.

Regarding `Cc1cccc(-c2nn(C)cc2C(=O)N[C@@H](Cc2ccccc2)C(=O)C(N)=O)c1` [Compound 163, (S)—N-(4-amino-3,4-dioxo-1-phenylbutan-2-yl)-1-methyl-3-(M-tolyl)-1H-pyrazole-4-carboxamide], the IC50 at Human Calpain 1/NS1 is < 3 µM; on Human Calpain 2/NS1, < 3 µM; on Human Calpain 9/NS1, < 3 µM; in experiment [1], 10 to 25 µM; in experiment [2] it was 10 to 25 µM.

As to `Cn1ncc(C(=O)N[C@@H](Cc2ccccc2)C(=O)C(N)=O)c1-c1ccccn1` [Compound 164, (S)—N-(4-amino-3,4-dioxo-1-phenylbutan-2-yl)-1-methyl-5-(pyridin-2-yl)-1H-pyrazole-4-carboxamide], the IC50 at Human Calpain 1/NS1 was < 3 µM; at Human Calpain 2/NS1 it was < 3 µM; on Human Calpain 9/NS1, < 3 µM; in experiment [1], > 25 µM; in experiment [2], > 25 µM.

For the molecule `Cc1ccc(-c2nn(C)cc2C(=O)N[C@@H](Cc2ccccc2)C(=O)C(N)=O)cc1` [Compound 166, (S)—N-(4-amino-3,4-dioxo-1-phenylbutan-2-yl)-1-methyl-3-(p-tolyl)-1H-pyrazole-4-carboxamide], the IC50 on Human Calpain 1/NS1 was < 3 µM; at Human Calpain 2/NS1 it was < 3 µM; on Human Calpain 9/NS1, < 3 µM; in experiment [1] it was 10 to 25 µM; in experiment [2], > 25 µM.

As to `Cn1cc(C(=O)N[C@@H](Cc2ccc(F)cc2)C(=O)C(N)=O)c(-c2ccccc2)n1` [Compound 168, (S)—N-(4-amino-1-(4-fluorophenyl)-3,4-dioxobutan-2-yl)-1-methyl-3-phenyl-1H-pyrazole-4-carboxamide], the IC50 is < 3 µM on Human Calpain 1/NS1; < 3 µM on Human Calpain 2/NS1; < 3 µM on Human Calpain 9/NS1; 10 to 25 µM in experiment [1]; < 10 µM in experiment [2].

Regarding `Cn1cc(C(=O)N[C@@H](Cc2ccccc2)C(=O)C(N)=O)c(-c2ccncc2)n1` [Compound 170, (S)—N-(4-amino-3,4-dioxo-1-phenylbutan-2-yl)-1-methyl-3-(pyridin-4-yl)-1H-pyrazole-4-carboxamide], the IC50 on Human Calpain 1/NS1 was < 3 µM; on Human Calpain 2/NS1 it was < 3 µM; at Human Calpain 9/NS1, < 3 µM; in experiment [1], > 25 µM; in experiment [2], > 25 µM.

Regarding `Cc1ccccc1-c1nn(C)cc1C(=O)N[C@@H](Cc1ccccc1)C(=O)C(N)=O` [Compound 171, (S)—N-(4-amino-3,4-dioxo-1-phenylbutan-2-yl)-1-methyl-3-(o-tolyl)-1H-pyrazole-4-carboxamide], the IC50 at Human Calpain 1/NS1 is < 3 µM; at Human Calpain 2/NS1 it was 3 to 10 µM; on Human Calpain 9/NS1, < 3 µM; in experiment [1], > 25 µM; in experiment [2], 10 to 25 µM.

On to `Cc1cccc(-c2c(C(=O)N[C@@H](Cc3ccccc3)C(=O)C(N)=O)cnn2C)c1` [Compound 172, (S)—N-(4-amino-3,4-dioxo-1-phenylbutan-2-yl)-1-methyl-5-(m-tolyl)-1H-pyrazole-4-carboxamide], for which the IC50 was < 3 µM on Human Calpain 1/NS1; < 3 µM on Human Calpain 2/NS1; < 3 µM on Human Calpain 9/NS1; < 10 µM in experiment [1]; > 25 µM in experiment [2].

As to `Cn1cc(C(=O)N[C@@H](Cc2ccccc2)C(=O)C(N)=O)c(-c2cncnc2)n1` [Compound 173, (S)—N-(4-amino-3,4-dioxo-1-phenylbutan-2-yl)-1-methyl-3-(pyrimidin-5-yl)-1H-pyrazole-4-carboxamide], the IC50 at Human Calpain 1/NS1 is < 3 µM; at Human Calpain 2/NS1, < 3 µM; on Human Calpain 9/NS1, < 3 µM; in experiment [1], > 25 µM; in experiment [2], > 25 µM.

Turning to `Cn1ncc(C(=O)N[C@@H](Cc2ccccc2)C(=O)C(N)=O)c1-c1cnccn1` [Compound 174], the IC50 on Human Calpain 1/NS1 was < 3 µM; at Human Calpain 2/NS1, < 3 µM; on Human Calpain 9/NS1, < 3 µM; in experiment [1], > 25 µM; in experiment [2], > 25 µM.

As to `Cn1ncc(C(=O)N[C@@H](Cc2ccccc2)C(=O)C(N)=O)c1-c1ccncn1` [Compound 175, (S)—N-(4-amino-3,4-dioxo-1-phenylbutan-2-yl)-1-methyl-5-(pyrimidin-4-yl)-1H-pyrazole-4-carboxamide], the IC50 at Human Calpain 1/NS1 is < 3 µM; at Human Calpain 2/NS1, < 3 µM; at Human Calpain 9/NS1 it was < 3 µM; in experiment [1] it was > 25 µM; in experiment [2] it was < 10 µM.

`COc1cccc(-c2nn(C)cc2C(=O)N[C@@H](Cc2ccccc2)C(=O)C(N)=O)c1` [Compound 177, (S)—N-(4-amino-3,4-dioxo-1-phenylbutan-2-yl)-3-(3-methoxyphenyl)-1-methyl-1H-pyrazole-4-carboxamide]: the IC50 on Human Calpain 1/NS1 is < 3 µM; at Human Calpain 2/NS1, < 3 µM; at Human Calpain 9/NS1 it was < 3 µM; in experiment [1], 10 to 25 µM; in experiment [2], < 10 µM.

In the case of `Cn1cc(C(=O)N[C@@H](Cc2ccccc2)C(=O)C(N)=O)c(-c2cccc(F)c2)n1` [Compound 178, (S)—N-(4-amino-3,4-dioxo-1-phenylbutan-2-yl)-3-(3-fluorophenyl)-1-methyl-1H-pyrazole-4-carboxamide], the IC50 at Human Calpain 1/NS1 is < 3 µM; at Human Calpain 2/NS1, < 3 µM; on Human Calpain 9/NS1, < 3 µM; in experiment [1], < 10 µM; in experiment [2], < 10 µM.

For `Cn1cc(C(=O)N[C@@H](Cc2ccccc2)C(=O)C(N)=O)c(-c2ccc(F)cc2)n1` [Compound 179, (S)—N-(4-amino-3,4-dioxo-1-phenylbutan-2-yl)-3-(4-fluorophenyl)-1-methyl-1H-pyrazole-4-carboxamide], the IC50 on Human Calpain 1/NS1 is < 3 µM; at Human Calpain 2/NS1 it was < 3 µM; on Human Calpain 9/NS1 it was < 3 µM; in experiment [1], 10 to 25 µM; in experiment [2], > 25 µM.
